Measured values as given in patent US20130116209A1, “METHOD FOR SELECTION OF CHEMOTHERAPEUTIC AGENTS FOR ADENOCARCINOMA CANCER” (VENTANA MEDICAL SYSTEMS, INC., priority 2011, published 2013).

What was measured:
[1] = test system: pancreatic adenocarcinoma; assay: Retrospective RTOG 9704 study: tumor hENT1 expression (IHC, SP120 antibody) versus overall survival after adjuvant gemcitabine or 5FU; format: in vivo, human; details: for OS of Low hENT1 subgroup compared to High hENT1 subgroup / OS across High, Mid and No hENT1 subgroups: Method Six; for OS across High, Mid and No hENT1 subgroups: three subgroups (FIG. 2 score sheet), FIGS. 33-34
Method: The RTOG 9704 study and its results are further described in Regine, W. F. et al. (2008) JAMA 299(9):1019-1026; Regine, W. F. et al. (2011) Ann. Surg. Oncol. 18:1319-1326.
Formalin-fixed, paraffin-embedded (FFPE) specimens have been retrieved from tissue repositories. The specimens were obtained from patients prior to adjuvant therapy. Tissue was processed into tissue microarrays (TMA) at the RTOG Biospecimen Resource center and IHC staining was performed in a central laboratory (Ventana Medical Systems). Stained slides were interpreted by pathologists blind to study outcomes.
Samples have been centralized within the RTOG Biospecimen Resource facility. Tissue micro arrays (TMA) were also constructed in the RTOG Biospecimen Resource facility. Three cores from each tumor specimen were arrayed on three separate TMAs. A total of 220 cases were arrayed on the TMAs.
Slides from TMAs were prepared and forwarded to the core pathology laboratory (Ventana Medical Systems), and stained by SP120 rabbit monoclonal antibody for detection of hENT1 protein according to established methods. The following parameters were recorded for each specimen based on scoring by a pathologist blinded to the patient's clinical characteristics and outcome: • Intensity of staining (e.g. 0=no stain, 1+=weakly positive, 2+=moderately positive, 3+=strongly positive) • Percentage of tumor cells with staining at each intensity level (% of tumor tissue specifically excluding non-malignant cells/regions) • Pattern of staining (segmented or diffuse) • Cellular compartment (membrane or cytoplasm).

[2] = test system: pancreatic cancer; details: Stage III/IV disease, gemcitabine monotherapy, unresectable pancreatic cancer; cited from earlier work
[3] = FIG. 3 algorithm (50% of tumor with membrane staining at 10×), FIGS. 4-5
[4] = FIG. 6 algorithm (PP at 2×, 4×, 10× and negative tumor <=50%), FIGS. 7-8

## Nc1ccn([C@@H]2O[C@H](CO)[C@@H](O)C2(F)F)c(=O)n1 [gemcitabine]
[1]; Method Five, FIG. 19
  OS of No hENT1 subgroup compared to Low and High hENT1 subgroups: shorter OS
[1]; Method Five, FIG. 20
  OS of combined Low and High hENT1 subgroup compared to No hENT1 subgroup: longer OS
[1]; Method Four, FIG. 31
  OS of negative hENT1 subgroup compared to Weak, Moderate or Strong subgroups: shorter OS
[1]; Method One, FIG. 23
  OS of H-score<=20 subgroup compared to H-score 20-80 and >=80 subgroups: shorter OS
[1]; Method One, FIG. 24
  OS of H-score>=50 patients compared to H-score <50 patients: longer OS
[1]; [3]
  OS of Low hENT1 subgroup compared to High hENT1 subgroup: shorter OS
[1]; [4]
  OS of Low hENT1 subgroup compared to High hENT1 subgroup: shorter OS
[1]
  OS across High, Mid and No hENT1 subgroups: No hENT1 expression exhibited the shortest OS followed by the Mid hENT1 subgroup and the High hENT1 subgroup had the longest OS
[1]; Method Three, FIG. 27
  OS of negative hENT1 subgroup compared to Segmental or Diffuse subgroups: shorter OS
[1]; Method Three, FIG. 28
  OS of patients with detectable hENT1 (S or D) compared to no hENT1 expression: longer OS
[1]; Method Two (magnification), FIGS. 15-16
  OS of subgroup N, 20× or 40× compared to subgroup PP at 2×, 4× or 10×: shorter OS
[2]
  median OS: 5-7 months

## O=c1[nH]cc(F)c(=O)[nH]1 [5FU, 5-Fluorouracil]
[1]; Method Five (percent negative staining), FIG. 18
  median OS as hENT1 expression increases from No to Low to High: do not demonstrate an improvement in OS
[1]; Method Four (staining intensity), FIG. 30
  median OS as hENT1 expression increases from Negative to Weak to Moderate to Strong: do not demonstrate an improvement in OS
[1]; Method One (H-score), FIG. 22
  median OS as hENT1 expression (H-score subgroup) increases: do not demonstrate an improvement in OS
[1]; [3]
  OS of Low hENT1 subgroup compared to High hENT1 subgroup: do not demonstrate improvement in OS
[1]; [4]
  OS of Low hENT1 subgroup compared to High hENT1 subgroup: do not demonstrate improvement in OS
[1]
  OS across High, Mid and No hENT1 subgroups: do not demonstrate improvement in OS
[1]; Method Three (staining pattern), FIG. 26
  median OS as hENT1 expression increases from Negative to Segmental to Diffuse: do not demonstrate an improvement in OS
